This is an account of results in US20060194837A1, “Tetrahydroisoquinoline compounds” (priority 2004, published 2006).

Assay [1] addresses T1, human SERT (Homo sapiens, UniProt P31645).
T1 construct: expressed in transfected cells; host or cells: HEK293 membranes
Kind of assay: Human SERT binding (3H-citalopram displacement). The settings on record: HEK293 membranes expressing human SERT, rt 1 h. The procedure: Homogenized HEK293 (Human Embryonic Kidney) membranes expressing the human SERT were incubated with ^3H-citalopram (SERT) at rt for 1 h in 50 mM Tris, 120 mM NaCl, 5 mM KCl (pH 7.4). […] The membranes were washed and the radioactivity was counted as above.

Assay [2] concerns the target T2, Rat SERT (Rattus norvegicus, UniProt P31652).
T2 construct: A rat brain without cerebellum (Zivic Laboratories, Inc.—Pittsburgh, Pa.) was homogenized; tissue Zivic Laboratories, Inc; host or cells: rat brain without cerebellum, membranes
Kind of assay: Rat brain SERT binding ([3H]-citalopram displacement). The conditions noted are these: rat brain membranes without cerebellum, 0.6 nM [3H]-citalopram, 60 min at 25° C. As to the method:
The supernatant was removed and re-centrifuged at 15,000 rpm for 30 min. […] Membranes were incubated with 0.6 nM [^3H]-Citalopram plus/minus test compounds for 60 min at 25° C. and harvested by rapid filtration over GF/C glass fiber filters (pretreated with 0.3% polyethylenimine) followed by four washes with ice-cold buffer.

The target in assay [3] is T3, human H3 receptor (Homo sapiens, UniProt Q9Y5N1).
T3 construct: expressed in transfected cells
Kind of assay: H3 receptor binding (N-[3H]-α-methylhistamine displacement). The conditions noted are these: membranes of SK-N-MC cells expressing cloned human H3 receptor, 0.8 nM N-[3H]-α-methylhistamine, 60 min at 25° C.

Structures are written as SMILES. Where two headings read alike, the source gives them in different places.

T1 sequence (P31645 whole entry): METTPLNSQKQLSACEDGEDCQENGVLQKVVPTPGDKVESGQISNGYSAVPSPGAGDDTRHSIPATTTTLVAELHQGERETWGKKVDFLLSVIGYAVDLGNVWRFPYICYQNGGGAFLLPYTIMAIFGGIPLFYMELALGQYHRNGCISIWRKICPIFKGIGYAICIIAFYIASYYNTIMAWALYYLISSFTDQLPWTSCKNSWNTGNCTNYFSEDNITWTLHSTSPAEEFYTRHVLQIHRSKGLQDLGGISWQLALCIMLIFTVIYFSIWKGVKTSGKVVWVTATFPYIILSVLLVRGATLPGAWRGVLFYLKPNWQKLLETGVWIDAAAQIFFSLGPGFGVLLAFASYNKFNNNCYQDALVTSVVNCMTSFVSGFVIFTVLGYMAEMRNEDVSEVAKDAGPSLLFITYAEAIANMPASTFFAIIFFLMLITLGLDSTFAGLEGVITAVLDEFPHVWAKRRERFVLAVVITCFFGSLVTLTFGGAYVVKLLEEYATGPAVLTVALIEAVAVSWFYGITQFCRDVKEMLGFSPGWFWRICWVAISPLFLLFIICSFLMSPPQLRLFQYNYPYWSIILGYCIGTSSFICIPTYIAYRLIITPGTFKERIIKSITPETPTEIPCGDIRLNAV
T2 sequence (P31652 whole entry): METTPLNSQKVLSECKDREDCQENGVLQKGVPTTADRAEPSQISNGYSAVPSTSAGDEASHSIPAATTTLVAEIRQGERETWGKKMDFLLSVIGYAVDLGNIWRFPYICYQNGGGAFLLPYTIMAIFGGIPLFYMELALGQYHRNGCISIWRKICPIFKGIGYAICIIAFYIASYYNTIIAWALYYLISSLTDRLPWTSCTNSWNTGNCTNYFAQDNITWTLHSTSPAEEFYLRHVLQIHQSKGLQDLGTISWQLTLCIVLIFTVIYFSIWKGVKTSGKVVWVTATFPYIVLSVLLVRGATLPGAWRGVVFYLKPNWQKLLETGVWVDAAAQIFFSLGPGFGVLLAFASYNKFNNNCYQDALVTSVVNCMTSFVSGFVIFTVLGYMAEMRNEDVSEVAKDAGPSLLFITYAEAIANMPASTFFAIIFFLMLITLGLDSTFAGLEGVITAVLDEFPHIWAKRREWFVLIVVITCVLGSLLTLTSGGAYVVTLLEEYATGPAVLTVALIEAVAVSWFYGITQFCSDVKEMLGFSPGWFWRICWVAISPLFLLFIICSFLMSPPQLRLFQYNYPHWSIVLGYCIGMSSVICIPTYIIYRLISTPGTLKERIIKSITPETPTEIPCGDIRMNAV
T3 sequence (Q9Y5N1 whole entry): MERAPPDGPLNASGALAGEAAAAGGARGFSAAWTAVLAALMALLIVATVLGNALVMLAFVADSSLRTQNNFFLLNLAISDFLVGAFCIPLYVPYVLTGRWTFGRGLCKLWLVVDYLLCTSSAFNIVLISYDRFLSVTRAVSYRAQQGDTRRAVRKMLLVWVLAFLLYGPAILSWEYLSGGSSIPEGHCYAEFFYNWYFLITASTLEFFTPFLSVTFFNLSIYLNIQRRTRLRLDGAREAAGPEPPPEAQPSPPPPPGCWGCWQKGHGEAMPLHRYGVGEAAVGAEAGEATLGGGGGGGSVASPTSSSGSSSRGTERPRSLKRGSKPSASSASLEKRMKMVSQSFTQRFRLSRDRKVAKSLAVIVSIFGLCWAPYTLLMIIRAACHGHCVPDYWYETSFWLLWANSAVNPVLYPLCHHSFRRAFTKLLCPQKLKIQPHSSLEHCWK

In general, Ki refers to the dissociation constant of the complex between target and ligand, obtained from inhibition or displacement. Consider `COc1ccc(C2CN(C)Cc3cc(OCCCN4CCC(F)CC4)ccc32)cc1` (racemic) [Example 1, 7-[3-(4-Fluoro-piperidin-1-yl)-propoxy]-4-(4-methoxy-phenyl)-2-methyl-1,2,3,4-tetrahydro-isoquinoline], for which the Ki in assay [1] was found to be 3 nM; in assay [2] (read-out: Rat SERT Ki), 2 nM.
On to `CSc1ccc(C2CN(C)Cc3cc(OCCCN4CCC(F)CC4)ccc32)cc1` (single isomer, unassigned) [Example 153, 7-[3-(4-Fluoro-piperidin-1-yl)-propoxy]-2-methyl-4-(4-methylsulfanyl-phenyl)-1,2,3,4-tetrahydro-isoquinoline], for which the Ki in assay [1] and in assay [2] (Rat SERT Ki (nM)) was 2 nM in each case.
Take `COc1ccc(C2CN(C)Cc3cc(OCCCN4CCCC(F)(F)C4)ccc32)cc1` (racemic) [Example 29, 7-[3-(3,3-Difluoro-piperidin-1-yl)-propoxy]-4-(4-methoxy-phenyl)-2-methyl-1,2,3,4-tetrahydro-isoquinoline]: the Ki in assay [1] came out at 8 nM; in assay [2] (read-out: Rat SERT Ki), 14 nM.
On the same counts, the results for `CSc1ccc(C2CN(C)Cc3cc(OCCCN4CCC(F)CC4)ccc32)cc1` (centres unmarked) [Example 52, 7-[3-(4-Fluoro-piperidin-1-yl)-propoxy]-2-methyl-4-(4-methylsulfanyl-phenyl)-1,2,3,4-tetrahydro-isoquinoline] are 2 nM and 3 nM.
For `COc1ccc(C2CN(C)Cc3cc(OCCCN4CCC(F)CC4)ccc32)cc1Cl` (centres unmarked) [Example 53, 4-(3-Chloro-4-methoxy-phenyl)-7-[3-(4-fluoro-piperidin-1-yl)-propoxy]-2-methyl-1,2,3,4-tetrahydro-isoquinoline] the same measures were 4 nM and 5 nM.
Turning to `COc1ccc(C2CN(C)Cc3cc(OCCCN4CCCC(F)(F)C4)ccc32)cc1` (single isomer, unassigned) [Example 29B, 7-[3-(3,3-Difluoro-piperidin-1-yl)-propoxy]-4-(4-methoxy-phenyl)-2-methyl-1,2,3,4-tetrahydro-isoquinoline], the figures for the Ki in assay [1] and in assay [2] (read-out: Rat SERT Ki) were 6 nM and 8 nM, respectively.
`COc1ccc(C2CN(C)Cc3cc(OCCCN4CCCC(F)(F)C4)ccc32)cc1` (single isomer, unassigned) [Example 29A, 7-[3-(3,3-Difluoro-piperidin-1-yl)-propoxy]-4-(4-methoxy-phenyl)-2-methyl-1,2,3,4-tetrahydro-isoquinoline]: the Ki in assay [1] was 13 nM.
For the compound `COc1ccc(C2CN(C)Cc3cc(OCCCN4CCC(F)CC4)ccc32)cc1` (single isomer, unassigned) [Example 1A, 7-[3-(4-Fluoro-piperidin-1-yl)-propoxy]-4-(4-methoxy-phenyl)-2-methyl-1,2,3,4-tetrahydro-isoquinoline], the Ki is 9 nM in assay [1] and 6 nM in assay [2] (read-out: Rat SERT Ki).
For the compound `CSc1ccc(C2CN(C)Cc3cc(OCCCN4CCC(F)CC4)ccc32)cc1` (single isomer, unassigned) [Example 154, 7-[3-(4-Fluoro-piperidin-1-yl)-propoxy]-2-methyl-4-(4-methylsulfanyl-phenyl)-1,2,3,4-tetrahydro-isoquinoline], the Ki in assay [1] stood at 4 nM; in assay [2] (Rat SERT Ki (nM)), 5 nM.
As to `CN1Cc2cc(OCCCN3CCC(F)CC3)ccc2C(c2ccc(S(C)(=O)=O)cc2)C1` (centres unmarked) [Example 51, 7-[3-(4-Fluoro-piperidin-1-yl)-propoxy]-4-(4-methanesulfonyl-phenyl)-2-methyl-1,2,3,4-tetrahydro-isoquinoline], the figures for the Ki in assay [1] and in assay [2] (read-out: Rat SERT Ki) were 103 nM and 34 nM, respectively.
On the same counts, the results for `COc1ccc(C2CN(C)Cc3cc(OCCCN4CCC(F)CC4)ccc32)cc1` (single isomer, unassigned) [Example 1B, 7-[3-(4-Fluoro-piperidin-1-yl)-propoxy]-4-(4-methoxy-phenyl)-2-methyl-1,2,3,4-tetrahydro-isoquinoline] are 3 nM and 2 nM.
Turning to `CSc1ccc(C2CN(C)Cc3c2ccc(OCCCN2CCOCC2)c3C)cc1` (centres unmarked) [Example 172, 2,8-Dimethyl-4-(4-methylsulfanyl-phenyl)-7-(3-morpholin-4-yl-propoxy)-1,2,3,4-tetrahydro-isoquinoline], the inhibitory constant (Ki) in assay [2] (read-out: Rat SERT Ki) worked out at 14 nM; in assay [3], 89 nM.
For `COc1ccc(C2CN(C)Cc3cc(OCC4CCN(CC(C)C)CC4)ccc32)c(F)c1` (centres unmarked) [Example 115, 4-(2-Fluoro-4-methoxy-phenyl)-7-(1-isobutyl-piperidin-4-ylmethoxy)-2-methyl-1,2,3,4-tetrahydro-isoquinoline], the Ki in assay [2] (read-out: Rat SERT Ki) is 8 nM; in assay [3], 10 nM.
For `COc1ccc(C2CN(C)Cc3cc(OCCCN4CCN(C)CC4)ccc32)cc1` (centres unmarked) [Example 197, 4-(4-Methoxy-phenyl)-2-methyl-7-[3-(4-methyl-piperazin-1-yl)-propoxy]-1,2,3,4-tetrahydro-isoquinoline] the same measures were 5 nM and 15 nM.
For `COCCN1CCN(CCCOc2ccc3c(c2)CN(C)CC3c2ccc(OC)cc2)CC1` (centres unmarked) [Example 209, 7-{3-[4-(2-Methoxy-ethyl)-piperazin-1-yl]-propoxy}-4-(4-methoxy-phenyl)-2-methyl-1,2,3,4-tetrahydro-isoquinoline] the same measures were 12 nM and 176 nM.
As to `COc1ccc(C2CN(C)Cc3cc(OCCCN4CCC4)ccc32)cc1` (centres unmarked) [Example 34, 7-(3-Azetidin-1-yl-propoxy)-4-(4-methoxy-phenyl)-2-methyl-1,2,3,4-tetrahydro-isoquinoline], the inhibitory constant (Ki) is 4 nM in assay [1] and 11 nM in assay [2] (read-out: Rat SERT Ki).
On to `COc1ccc(C2CN(C)Cc3cc(OCCCN4CCN(CCO)CC4)ccc32)cc1` (centres unmarked) [Example 202, 2-(4-{3-[4-(4-Methoxy-phenyl)-2-methyl-1,2,3,4-tetrahydro-isoquinolin-7-yloxy]-propyl}-piperazin-1-yl)-ethanol], for which the Ki came to 3 nM in assay [2] (read-out: Rat SERT Ki) and 43 nM in assay [3].
For the compound `CSc1ccc(C2CN(C)Cc3cc(OC4CCN(C5CCOCC5)CC4)ccc32)cc1` (centres unmarked) [Example 246, 2-Methyl-4-(4-methylsulfanyl-phenyl)-7-[1-(tetrahydro-pyran-4-yl)-piperidin-4-yloxy]-1,2,3,4-tetrahydro-isoquinoline], the Ki in assay [2] (read-out: Rat SERT Ki) was 10 nM; in assay [3] it was 3 nM.
`CSc1ccc(C2CN(C)Cc3cc(OCCCN4CCCCC4)c(C)cc32)cc1` (centres unmarked) [Example 270, 2,6-Dimethyl-4-(4-methylsulfanyl-phenyl)-7-(3-piperidin-1-yl-propoxy)-1,2,3,4-tetrahydro-isoquinoline]: the Ki in assay [2] (read-out: Rat SERT Ki) was 18 nM; in assay [3], 6 nM.
Regarding `CSc1ccc(C2CN(C)Cc3cc(OCC4CNCCO4)ccc32)cc1` (mixture of isomers) [Example 264, 2-Methyl-4-(4-methylsulfanyl-phenyl)-7-(morpholin-2-ylmethoxy)-1,2,3,4-tetrahydro-isoquinoline], the figures for the Ki in assay [2] (read-out: Rat SERT Ki) and in assay [3] were 6 nM and 3250 nM, respectively.
`COc1cccc(C2CN(C)Cc3cc(OC4CCN(C)CC4)ccc32)c1` (centres unmarked) [Example 97, 4-(3-Methoxy-phenyl)-2-methyl-7-(1-methyl-piperidin-4-yloxy)-1,2,3,4-tetrahydro-isoquinoline]: the Ki in assay [2] (read-out: Rat SERT Ki) is 45 nM; in assay [3], 6 nM.
For `C=CCNCCCOc1ccc2c(c1)CN(C)CC2c1ccc(OC)cc1` (centres unmarked) [Example 227, Allyl-{3-[4-(4-methoxy-phenyl)-2-methyl-1,2,3,4-tetrahydro-isoquinolin-7-yloxy]-propyl}-amine] the same measures were 1 nM and 52 nM.
For `CCN1CCC(COc2ccc3c(c2)CN(C)CC3c2ccc(OC)c(Cl)c2)CC1` (centres unmarked) [Example 107, 4-(3-Chloro-4-methoxy-phenyl)-7-(1-ethyl-piperidin-4-ylmethoxy)-2-methyl-1,2,3,4-tetrahydro-isoquinoline] the same measures were 10 nM and 5 nM.
With `COc1cccc(C2CN(C)Cc3cc(OCC4CCNCC4)ccc32)c1` (centres unmarked) [Example 241, 4-(3-Methoxy-phenyl)-2-methyl-7-(piperidin-4-ylmethoxy)-1,2,3,4-tetrahydro-isoquinoline], the inhibitory constant (Ki) in assay [1] is 10 nM; in assay [3], 39 nM.
Regarding `CCCN1CCC(Oc2ccc3c(c2)CN(C)CC3c2cccc(OC)c2)CC1` (centres unmarked) [Example 102, 4-(3-Methoxy-phenyl)-2-methyl-7-(1-propyl-piperidin-4-yloxy)-1,2,3,4-tetrahydro-isoquinoline], the Ki was 13 nM in assay [2] (read-out: Rat SERT Ki) and 2 nM in assay [3].
For `COc1ccc(C2CN(C)Cc3cc(OCCCN4CCC[C@H]4C(F)(F)F)ccc32)cc1` (stereo partly drawn) [Example 28, 4-(4-Methoxy-phenyl)-2-methyl-7-[3-((2S)-trifluoromethyl-pyrrolidin-1-yl)-propoxy]-1,2,3,4-tetrahydro-isoquinoline], the values for the Ki in assay [2] (read-out: Rat SERT Ki) and in assay [3] were 12 nM and 140 nM, respectively.
On the same counts, the results for `COc1ccc(C2CN(C(C)c3ccccc3)Cc3cc(OCCCN4CCOCC4)ccc32)cc1` (single isomer, unassigned) [Example 75A, 4-(4-Methoxy-phenyl)-7-(3-morpholin-4-yl-propoxy)-2-(1-phenyl-ethyl)-1,2,3,4-tetrahydro-isoquinoline] are 2000 nM and 7 nM.
